Assay results reported in ChEMBL document CHEMBL1697781, “Assessment of the health effects of chemicals in humans: II. Construction of an adverse effects database for QSAR modeling” (Curr Drug Discov Technol, 2004).

Assays:
Details in all cases: human; call rule not given here
Hepatotoxicity [1] = assay: FDA HLAED, liver enzyme composite activity
Hepatotoxicity [2] = assay: FDA HLAED, serum glutamic pyruvic transaminase (SGPT) increase
Hepatotoxicity [3] = assay: FDA HLAED, serum glutamic oxaloacetic transaminase (SGOT) increase
Hepatotoxicity [4] = assay: FDA HLAED, lactate dehydrogenase (LDH) increase
Hepatotoxicity [5] = assay: FDA HLAED, gamma-glutamyl transferase (GGT) increase
Hepatotoxicity [6] = assay: FDA HLAED, alkaline phosphatase increase
For GGT Increase - Index Value in this document: reference of the scale not given here.
For LDH Increase - Index Value in this document: reference of the scale not given here.

| Compound | Composite Activity - Active (Hepatotoxicity [1]) | Composite Activity - Marginal (Hepatotoxicity [1]) | Composite Activity - Score (Hepatotoxicity [1]) | SGPT Increase - Activity Score (Hepatotoxicity [2]) | SGPT Increase - Index Value (Hepatotoxicity [2]) | SGPT Increase - Number of Reports (Hepatotoxicity [2]) | SGOT Increase - Activity Score (Hepatotoxicity [3]) | SGOT Increase - Index Value (Hepatotoxicity [3]) | SGOT Increase - Number of Reports (Hepatotoxicity [3]) | LDH Increase - Activity Score (Hepatotoxicity [4]) | LDH Increase - Index Value (Hepatotoxicity [4]) | LDH Increase - Number of Reports (Hepatotoxicity [4]) | GGT Increase - Activity Score (Hepatotoxicity [5]) | GGT Increase - Index Value (Hepatotoxicity [5]) | GGT Increase - Number of Reports (Hepatotoxicity [5]) | Alkaline Phosphatase Increase - Activity Score (Hepatotoxicity [6]) | Alkaline Phosphatase Increase - Index Value (Hepatotoxicity [6]) | Alkaline Phosphatase Increase - Number of Reports (Hepatotoxicity [6]) | also measured |
| --- | --- | --- | --- | --- | --- | --- | --- | --- | --- | --- | --- | --- | --- | --- | --- | --- | --- | --- | --- |
| COc1c(C)c2c(c(O)c1C/C=C(\C)CCC(=O)O)C(=O)OC2 [MYCOPHENOLIC ACID] | 1 | 0 | Inactive | Active | 9.6 | >= 4 | Inactive | 3.8 | < 4 | Inactive | 1.9 | < 4 | Inactive | 3.8 | < 4 | Inactive | 5.7 | < 4 | – |
| CCCCCCC(C)(C)c1cc(O)c2c(c1)OC(C)(C)C1CCC(=O)CC21 (stereo not given) [NABILONE] | 0 | 0 | Inactive | Inactive | 0 | < 4 | Inactive | 0 | < 4 | Inactive | 0 | < 4 | Inactive | 0 | < 4 | Inactive | 0 | < 4 | – |
| COc1ccc2cc(CCC(C)=O)ccc2c1 [NABUMETONE] | 0 | 0 | Inactive | Inactive | 0.6 | >= 4 | Inactive | 0.6 | >= 4 | Inactive | 0.3 | >= 4 | Inactive | 0.5 | >= 4 | Inactive | 0.8 | >= 4 | – |
| CC(C)(C)NCC(O)COc1cccc2c1CC(O)C(O)C2 (stereo not given) [NADOLOL] | 0 | 0 | Inactive | Inactive | 0.7 | >= 4 | Inactive | 0.7 | >= 4 | Inactive | 0 | < 4 | Inactive | 0 | < 4 | Inactive | 0.3 | < 4 | – |
| CN(C/C=C/c1ccccc1)Cc1cccc2ccccc12 [NAFTIFINE] | – | – | – | Inactive | 0 | < 4 | Inactive | 0 | < 4 | Inactive | 0 | < 4 | Inactive | 0 | < 4 | Inactive | 0 | < 4 | Composite Activity - Active (Hepatotoxicity [1]; Liver): 0; Composite Activity - Marginal (Hepatotoxicity [1]; Liver): 0; Composite Activity - Score (Hepatotoxicity [1]; Liver): Inactive |
